# In patent US20160120950A1, “Pharmaceutical Formulations Comprising Incretin Mimetic Peptide and Aprotic Polar Solvent” (Amylin Pharmaceuticals, LLC, priority 2008, published 2016):
# Columns and labels:
# [1] = tested on: cloned GLP-1 receptor; settings: cells transfected with the cloned GLP-1 receptor; cited from earlier work
# [2] = Stability of exendin-4 in DMSO and DMSO/0.5% water, SEC-HPLC potency (Example 1); format: physicochemical; settings: in DMSO and DMSO with 0.5% water, up to 6 months at 5, 25, 40° C.
# Method: (§1) The stability of exendin-4 in DMSO and DMSO with 0.5% water added may be evaluated as follows. The evaluation may be based on the stability of exendin-4 samples stored at 5, 25, and 40° C. for up to 6 months. Further, the stability of exendin-4 in DMSO, as compared to aqueous buffers at a pH of 4.5 may be evaluated.
# (§2) Three HPLC methods may be used to analyze the samples: size exclusion HPLC (SEC-HPLC) to determine potency (mg/ml) and two methods to evaluate purity (%), a strong cation exchange (SCX) method and a reversed-phase (RP) method. The methods may be adapted as necessary to achieve appropriate sample analysis. Additionally, the water content of the samples may be evaluated using a suitable Karl Fischer analytical procedure.
# For example, SEC-HPLC can be used to measure the potency of an exendin-4 solution by external standard assay, based on total peptide content of the exendin-containing solution at 214 nm, as compared to qualified reference standard solutions. The identity, potency and label strength of exendin-4 can be established by comparison of the retention times of the exendin-4 peaks in the sample and reference standard solutions.
# For a six-month delivery period, approximately 3600 μg of exendin-4 may be desirable based on a 20 μg/day dose. Assuming a representative delivery reservoir of approximately 150 μL, a concentration of about 25 mg/mL may be desirable. […]
# [3] = Stability of exendin-4 in DMSO, DMSO/0.5% water and aqueous buffer pH 4.5, SCX-HPLC purity (Example 1); format: physicochemical; settings: FIGS. 3 and 4, 25° C. and 40° C.
# Method: as §1, §2
# For a six-month delivery period, approximately 3600 μg of exendin-4 may be desirable based on a 20 μg/day dose. Assuming a representative delivery reservoir of approximately 150 μL, a concentration of about 25 mg/mL may be desirable. Further, proteins and peptides are commonly lyophilized and often include some residual moisture. As such, the effect of water on peptide stability may be investigated, and samples may be prepared in neat DMSO and in DMSO with 0.5% water added.
# This concentration of water will depress the 18.6° C. freezing point of DMSO to only about 17.5° C. […]
# [4] = Exendin-4 stability in aprotic, polar solvent systems, SCX-Purity (Example 2); format: physicochemical; settings: 10% w/w water (0.67 mole fraction DMSO)
# Method: The stability of exendin-4 in other aprotic, polar solvents and in DMSO-based co-solvent systems may also be evaluated. The evaluation may be based on the stability of exendin-4 samples stored at 5, 25, and 37° C. for up to 6 months. In addition to dimethyl sulfoxide (DMSO), solvents for evaluation include water, dimethyl acetamide (DMA), dimethyl formamide (DMF), N-methylpyrrolidone (NMP), Propylene carbonate, and ethyl acetate.
# as §2, with “The methods may be adapted as necessary to achieve appropriate sample analysis.” left out
# Nonaqueous Solvents: The stability of exendin-4 in aprotic, polar solvents with freezing points lower than 0° C. may be evaluated. […]
# Co-solvent System with Water: Water at approximately 8% w/w depresses the freezing point of DMSO to just below 0° C. To provide additional protection against freezing, a 10% w/w water solution may be evaluated. […]
# Co-solvent Systems with Aprotic, Polar Solvents: Other solvents can also be used to depress the freezing point of DMSO. […] Appropriate amounts of the non-aqueous solvent may first be determined. Next the solubility of exendin-4 may be evaluated by visual inspection in the co-solvent mixture. […]
# [5] = Stability of exendin-4 in DMSO formulations, text summary of SCX- and RP-HPLC purity (Example 1, FIGS. 1 and 2); format: physicochemical
# Method: as §1, §2
# More particularly, 25 mg/mL samples of exendin-4 in neat DMSO and DMSO/0.5% water are prepared in N2 atmosphere and held at 5, 25, and 40° C. for 6 months (abbreviated as “mos.”).
# Exendin-4 may be formulated in DMSO and DMSO spiked with 0.5% water. […] Exendin-4 purity is reduced about 28% from initial values after 6 months at 40° C. At 25° C., the purity is decreased about 3 to 4% over the same time period. (See FIGS. 1 and 2). However, at 5° C. the purity remains within 0.4 to 0.6% of initial purity values. […] By comparison to aqueous product stability (FIGS. 3 and 4), it is apparent that exendin-4 stability is improved in the aprotic, polar solvent DMSO.
changes in potency [2],stability in DMSO by comparison to aqueous product stability [3],stability of exendin-4 in DMSO solvent solution containing 10% w/w water [4],difference due to the presence of 0.5% water ([5]; DMSO vs DMSO spiked with 0.5% water),"purity reduced from initial values ([5]; in DMSO and DMSO with 0.5% water, 6 months at 40° C.)",Substance,activity at the cloned GLP-1 receptor (cAMP) [1]
,,,,,exendin[9-39],antagonist
Essentially no changes,improved,enhanced,no substantial difference,about 28%,Exendin-4,agonist
